The record followed here is article PMC9545004, “Transglutaminase 2 affinity and enzyme‐substrate intermediate stability as determining factors for T‐cell responses to gluten peptides in celiac disease” (European Journal of Immunology, 2022).

Data set [1] deals with TCR-transfectant cells specific for DQ2.5-glia-α2 or DQ2.5-glia-ω2. As to the kind of experiment: Inhibition by primary amines of gluten-specific T-cell stimulation via TG2-specific B cells, both epitopes. Type of data set: cell-based. The note with it: native α-gliadin 33-mer and ω-gliadin 34-mer, IL-2 production, Table S2, read-out: IC50, inhibition of T-cell stimulation (range). The text has this: (§1) Murine A20 B lymphoma cells engineered to express either the celiac patient‐derived TG2‐specific BCR 679‐14‐E06 or the non‐TG2‐specific BCR 693‐2‐F02 as human IgD are previously described. For B‐cell/T‐cell collaboration assays, we used A20 BCR transfectants also transduced to express HLA‐DQ2.5 [27]. Murine BW58α^–β^– cells were retrovirally transduced to express human CD4 as well as the celiac patient‐derived gluten‐specific TCR from a DQ2.5‐glia‐γ1‐reactive T‐cell clone (TCC 4.32) as previously described. The generation of TCR transfectants expressing DQ2.5‐glia‐α2‐reactive TCR (TCC 364.14) and DQ2.5‐glia‐ω2‐reactive TCR (clone 737.30) have been described previously.
The B‐cell/T‐cell collaboration assays were set up as previously described. […] The next day, IL‐2 concentration was measured in the culture supernatant by ELISA as previously described. The responsiveness of different TCR transfectants was assessed in the same way, but without the 30 min incubation with TG2, and using the synthetic deamidated peptides (D‐α‐gliadin 20‐mer, D‐ω‐gliadin 17‐mer, and D‐γ‐gliadin 21‐mer). […]

The subject of data set [2] is TCR-transfectant cells specific for DQ2.5-glia-ω2. The experiment in a line: Inhibition by primary amines of activation of DQ2.5-glia-ω2-specific T cells by TG2-specific B cells, IL-2 ELISA. The note with it: for IC50: 5 µM N-ω-gliadin 34-mer, TG2, CaCl2, amine 0-1000 µM, IL-2 ELISA. Type of data set: cell-based.
Text: as §1
The B‐cell/T‐cell collaboration assays were set up as previously described. To compare the uptake and presentation of different gluten peptides to T cells, A20 cells (5 mill/mL) expressing the TG2‐specific BCR (679‐14‐E06) and HLA DQ2.5 were incubated with recombinant TG2 (final 3 µg/mL) and varying amounts of N‐α‐gliadin 20‐mer, N‐ω‐gliadin 19‐mer, or N‐γ‐gliadin 21‐mer in RPMI supplemented with 2 mM CaCl2. After a 30 min incubation at 37°C the cells were washed with 1% FCS/RPMI and resuspended in 5% FCS/RPMI to give a final 1.5 million cells/mL (150 000/well) followed by 2 h incubation at 37°C. Next, TCR‐transfectant cells specific for either DQ2.5‐glia‐α2, DQ2.5‐glia‐ω2, or DQ2.5‐glia‐γ1 were added (25 000/well), followed by overnight incubation at 37°C. The next day, IL‐2 concentration was measured in the culture supernatant by ELISA as previously described. The responsiveness of different TCR transfectants was assessed in the same way, but without the 30 min incubation with TG2, and using the synthetic deamidated peptides (D‐α‐gliadin 20‐mer, D‐ω‐gliadin 17‐mer, and D‐γ‐gliadin 21‐mer). To assess how TG2 secondary substrate affects peptide uptake and presentation to T cells, TG2‐specific A20 cells expressing DQ2.5 were incubated with TG2, CaCl2, 5 µM N‐ω‐gliadin 34‐mer, or 5 µM N‐α‐gliadin 33‐mer in the presence of primary amines at increasing concentrations (0‐1000 µM), before the addition of TCR‐transfectant cells specific for the DQ2.5‐glia‐α2 or DQ2.5‐glia‐ω2 epitopes. The dose‐response curve fitting to find IC50 was done using the “[Inhibitor] vs. response” equation in GraphPad Prism 8.3.0. To examine whether primary amines directly affect the B cells, TG2‐specific A20 cell expressing DQ2.5 were incubated with primary amines for 30 min and washed, before addition of 2 µM D‐ω‐gliadin 34‐mer, followed by incubation with DQ2.5‐glia‐ω2 TCR transfectants.
(In general: An ELISA detects its analyte on a solid surface through an enzyme-linked reagent.)

Data set [3] relates to TG2-specific A20 cells expressing DQ2.5 and DQ2.5-glia-ω2 TCR transfectants. The experiment in a line: Effect of primary amines on T-cell response to deamidated gluten peptide (off-target/toxicity control). The note with it: 30 min pre-incubation of A20 cells with amine, then D-ω-gliadin 34-mer and DQ2.5-glia-ω2 TCR transfectants; IL-2; Figure S6. Type of data set: cell-based, Murine A20 B cells and BW58α–β– cells. As to the method: The B‐cell/T‐cell collaboration assays were set up as previously described. To compare the uptake and presentation of different gluten peptides to T cells, A20 cells (5 mill/mL) expressing the TG2‐specific BCR (679‐14‐E06) and HLA DQ2.5 were incubated with recombinant TG2 (final 3 µg/mL) and varying amounts of N‐α‐gliadin 20‐mer, N‐ω‐gliadin 19‐mer, or N‐γ‐gliadin 21‐mer in RPMI supplemented with 2 mM CaCl2. After a 30 min incubation at 37°C the cells were washed with 1% FCS/RPMI and resuspended in 5% FCS/RPMI to give a final 1.5 million cells/mL (150 000/well) followed by 2 h incubation at 37°C. Next, TCR‐transfectant cells specific for either DQ2.5‐glia‐α2, DQ2.5‐glia‐ω2, or DQ2.5‐glia‐γ1 were added (25 000/well), followed by overnight incubation at 37°C. The next day, IL‐2 concentration was measured in the culture supernatant by ELISA as previously described. The responsiveness of different TCR transfectants was assessed in the same way, but without the 30 min incubation with TG2, and using the synthetic deamidated peptides (D‐α‐gliadin 20‐mer, D‐ω‐gliadin 17‐mer, and D‐γ‐gliadin 21‐mer). […]
or T cells in our cellular assays. […] T-cell activation was assessed b y ELISA quant ification of IL-2 secreted into the cell culture medium. […]

Where [4] appears, read: DQ2.5-glia-ω2, replicate Figure S5A.
Setting [5] is: DQ2.5-glia-ω2, replicate Figure S5B.
Where [6] appears, read: logIC50, DQ2.5-glia-ω2, Figure 5.
Setting [7] is: logIC50, DQ2.5-glia-ω2, replicate Figure S5A.
Setting [8] is: logIC50, DQ2.5-glia-ω2, replicate Figure S5B.

As usually defined, the IC50 is the midpoint of a concentration-inhibition curve.

For the compound `NCCCCCNC(=O)CCCC[C@@H]1SC[C@@H]2NC(=O)N[C@@H]21` [5-BP, 5‐biotinamido‐pentylamine], the IC50 was 27 to 58 µM in data set [1]; 60.7 µM in data set [2] (DQ2.5-glia-ω2, Figure 5); 27 µM in data set [2] (DQ2.5-glia-ω2, mean); 13.6 µM in data set [2] (setting [4]); 6.79 µM in data set [2] (setting [5]). Besides, the logIC50 in data set [2] (DQ2.5-glia-ω2, Figure 5) was 1.78; in data set [2] (DQ2.5-glia-ω2, mean) it was 1.25; in data set [2] (setting [4]), 1.13; in data set [2] (setting [5]) it was 0.832. The “log 95% CI lower limit” value in data set [2] (setting [6]) was determined as 1.52; in data set [2] (logIC50, DQ2.5-glia-ω2, mean), 1.23; in data set [2] (setting [7]), 0.940. The “log 95% CI upper limit” value in data set [2] (setting [6]) is 2.04; in data set [2] (logIC50, DQ2.5-glia-ω2, mean), 1.57; in data set [2] (setting [7]) it was 1.32; in data set [2] (setting [8]), 1.36. Further, the “toxic effect on B cells or T cells in cellular assays” value in data set [3] is “no toxic effect”.

`NCCCNCCCCNCCCN` [spermine]: the IC50 in data set [1] was 27 to 58 µM; in data set [2] (DQ2.5-glia-ω2, Figure 5), 55.1 µM; in data set [2] (DQ2.5-glia-ω2, mean), 27.5 µM; in data set [2] (setting [4]), 18.4 µM; in data set [2] (setting [5]), 9.13 µM. Besides, the logIC50 in data set [2] (DQ2.5-glia-ω2, Figure 5) was 1.74; in data set [2] (DQ2.5-glia-ω2, mean), 1.32; in data set [2] (setting [4]), 1.26; in data set [2] (setting [5]) it was 0.960. Further, the “log 95% CI lower limit” value in data set [2] (setting [6]) is 1.50; in data set [2] (logIC50, DQ2.5-glia-ω2, mean), 1.04; in data set [2] (setting [7]), 1.03; in data set [2] (setting [8]), 0.610. For the same compound, the “log 95% CI upper limit” value in data set [2] (setting [6]) turned out to be 1.99; in data set [2] (logIC50, DQ2.5-glia-ω2, mean) it was 1.58; in data set [2] (setting [7]) it was 1.50; in data set [2] (setting [8]), 1.26. In addition, the “toxic effect on B cells or T cells in cellular assays” value in data set [3] was “no toxic effect”.
